Source: US20110046040A1, “Microorganism-inactivating agent” (CHISSO CORPORATION, priority 2009, published 2011)

Assays:
Test in all cases: inactivation of microorganisms in water, number of cells in supernatant
Assay type in all cases: cell-based
[1] = system: Bacillus cereus; settings: 10 ppm; pH 8; initial 9.5 × 10^4
Procedure: (§1) Each test microbe was inoculated to nutrient broth and cultured with shaking at the optimum temperature of the test microbe until the late logarithmic phase. From the microbe culture, the microbe was collected, and the collected microbe was washed with 1.5 mL of physiological saline 2 to 3 times (centrifugation at 13000 rpm for 1 minute) and suspended in 1.5 mL of physiological saline. From the suspension, a 1 mL aliquot was recovered, and this was added to 9 mL of sterile water, followed by sufficient stirring of the resulting suspension (this was used as 10^−1 dilution). From the 10^−1 dilution, 10^−2 to 10^−8 dilutions were sequentially prepared. Each dilution was smeared on a film medium (Sanita-kun; for E. coli and coliform bacteria, for Staphylococcus aureus, for Salmonella, for aerobic bacteria or for fungi: Chisso Corporation) in an amount of 1 mL, followed by culturing at the optimum temperature of the test microbe for 24 to 72 hours and measurement of the number of cells on the film medium.
(§2) To a sterilized beaker, 500 mL of sterilized water was placed, and 0.20 mL of microbe culture of 10^6 to 10^10 cells/mL was inoculated thereto, to attain an initial cell number of 10^3 to 10^7 cells/mL. Unless otherwise specified, the pH was 6 to 8. After stirring the suspension gently for 5 minutes, PGα21Ca (Nippon Poly-Glu Co., Ltd.) and/or a microbiostatic agent or microbicide was/were added thereto such that a predetermined final concentration(s) was/were attained. After gentle stirring at room temperature for 10 to 15 minutes, the suspension was left to stand for a predetermined length of time. The supernatant was collected and diluted appropriately in an antimicrobial agent-inactivating medium (BHI medium or the like), and 1 mL each of the resulting diluent was smeared on a film medium. Culturing was carried out at the optimum temperature of each test microbe for 24 to 72 hours and the number of cells (cells/mL) on the film medium was measured.

[2] = system: Bacillus subtilis; settings: 10 ppm; pH 8; initial 6.0 × 10^4
Procedure: as §1, §2

[3] = system: Escherichia coli; settings: 10 ppm; pH 8; initial 5.8 × 10^4
Procedure: as §1, §2

[4] = system: Klebsiella pneumoniae; settings: 10 ppm; pH 8; initial 1.3 × 10^5
Procedure: as §1, §2

[5] = system: Listeria monocytogenes; settings: 10 ppm; pH 8; initial 2.0 × 10^4
Procedure: as §1, §2

[6] = system: Pseudomonas aeruginosa; settings: 10 ppm; pH 8; initial 2.0 × 10^5
Procedure: as §1, §2

[7] = system: Salmonella choleraesuis; settings: 10 ppm; pH 8; initial 4.7 × 10^4
Procedure: as §1, §2

[8] = system: Staphylococcus aureus; settings: 10 ppm; pH 8; initial 4.3 × 10^4
Procedure: as §1, §2

## protamine sulfate
[1]
  number of cells 2 hours later: 300 cells/mL
[2]
  number of cells 2 hours later: 10 cells/mL
[3]
  number of cells 2 hours later: <10 cells/mL
[4]
  number of cells 2 hours later: 10 cells/mL
[5]
  number of cells 2 hours later: <10 cells/mL
[6]
  number of cells 2 hours later: <10 cells/mL
[7]
  number of cells 2 hours later: <10 cells/mL
[8]
  number of cells 2 hours later: <10 cells/mL
